These results are taken from patent publication US8476197B2, “Aminopropenoates as fungicides” (priority 2009, dated 2013).

Marks after values point to notes of the source that are not given here.

For orientation: Log P means the decadic logarithm of the partition coefficient of the neutral form, usually between octanol and water. Lower therefore signals lower lipophilicity.

The conditions of one data set: pH 2.3.
Regarding `COC(=O)C(C#N)=C(NCC(N)=O)c1cccnc1Cl` [Compound 569], the “Log P” value stood at 1.14.

For the compound `COC(=O)C(C#N)=C(NC(CO)C(N)=O)c1cccnc1Cl` (centres unmarked) [Compound 570], the lipophilicity (Log P) is 0.97.

In the case of `CCOC(=O)C(C#N)=C(NC(C)CSC)c1cccnc1C` (centres unmarked) [Compound 648], the “Log P” value is 2.2.

The same data set, now with this note: pH 2.7.
`CCOC(=O)C(C#N)=C(Nc1ccc(C(C)C)cc1)c1ccsc1Br` [Compound 536]: the “Log P” value was 4.78^[a].

Consider `CCOC(=O)C(C#N)=C(Nc1cccc(SC)c1)c1ccsc1Br` [Compound 537], for which the log partition coefficient (Log P) was 4.04^[a].

Consider `CCOC(=O)C(C#N)=C(Nc1cccc(Cl)c1)c1ccsc1Br` [Compound 539], for which the “Log P” value was 4.09^[a].

`CCOC(=O)C(C#N)=C(Nc1ccc(N(C)C)cc1)c1ccsc1Br` [Compound 540]: the “Log P” value is 3.76^[a].

In the case of `CCOC(=O)C(C#N)=C(NC1(c2c(F)cccc2F)CC1)c1cccnc1Cl` [Compound 543], the “Log P” value is 3.39^[a].

In the case of `CCOC(=O)C(C#N)=C(NC1(c2c(F)cccc2F)CC1)c1cn(C)cc1C(F)(F)F` [Compound 547], the “Log P” value is 3.85^[a].

With `CCOC(=O)C(C#N)=C(Nc1ccccc1SC)c1cn(C)cc1C(F)(F)F` [Compound 548], the “Log P” value was 3.73^[a].

As to `CCOC(=O)C(C#N)=C(NC(C)(C)c1ccccc1)c1cn(C)nc1C(F)F` [Compound 551], the “Log P” value is 3.33^[a].

With `CCOC(=O)C(C#N)=C(NCc1ccc(Cl)cc1)c1cn(C)nc1C(F)F` [Compound 555], the “Log P” value is 3.31^[a].

As to `CCOC(=O)C(C#N)=C(NC1(c2c(F)cccc2F)CC1)c1cn(C)nc1C(F)F` [Compound 559], the “Log P” value was 3.17^[a].

With `CCOC(=O)C(C#N)=C(NC1(COc2ccccc2)CC1)c1cccnc1Cl` [Compound 560], the “Log P” value is 3.6^[a].

`CCOC(=O)C(C#N)=C(NC1(COc2ccccc2)CC1)c1cn(C)nc1C(F)F` [Compound 561]: the “Log P” value was 3.37^[a].

Turning to `CCOC(=O)C(C#N)=C(NC(C)CN(C)C)c1conc1C` (centres unmarked) [Compound 594], the “Log P” value is 0.76^[a].

Consider `CCOC(=O)C(C#N)=C(NC(C)C(N)=O)c1conc1C` (centres unmarked) [Compound 596], for which the “Log P” value was 1.41^[a].

Take `COC(=O)C(C#N)=C(NC(C)C(N)=O)c1cn(C)nc1C(F)F` (centres unmarked) [Compound 598]: the “Log P” value is 1.3^[a].

`CCOC(=O)C(C#N)=C(NC(C)C(=O)NC)c1cn(C)nc1C(F)F` (centres unmarked) [Compound 599]: the “Log P” value is 1.66^[a].

For `CNC(=O)C(C)NC(=C(C#N)C(=O)OC)c1cn(C)nc1C(F)F` (centres unmarked) [Compound 601], the “Log P” value was 1.38^[a].

In the case of `CCOC(=O)C(C#N)=C(NC(C)CN(C)C)c1cn(C)nc1C(F)(F)F` (centres unmarked) [Compound 602], the “Log P” value is 1.36^[a].

In the case of `CCOC(=O)C(C#N)=C(NCC(C)N)c1c(C)nn(C)c1Cl` (centres unmarked) [Compound 603], the “Log P” value was 0.96^[a].

As for `CCOC(=O)C(C#N)=C(NC(C)CN(C)C)c1c(C)nn(C)c1Cl` (centres unmarked) [Compound 605], the “Log P” value is 1.13^[a].

As for `CCOC(=O)C(C#N)=C(NC(C)C(=O)NC)c1c(C)nn(C)c1Cl` (centres unmarked) [Compound 606], the “Log P” value is 1.7^[a].

With `CCOC(=O)C(C#N)=C(NC(C)C(N)=O)c1c(C)nn(C)c1Cl` (centres unmarked) [Compound 607], the “Log P” value is 1.58^[a].

As to `CCOC(=O)C(C#N)=C(NC(C)CN(C)C)c1sccc1C(F)(F)F` (centres unmarked) [Compound 608], the “Log P” value was 1.63^[a].

`CCOC(=O)C(C#N)=C(NCC(C)N)c1sccc1C(F)(F)F` (centres unmarked) [Compound 609]: the “Log P” value was 1.42^[a].

In the case of `CCOC(=O)C(C#N)=C(NC(C)C(N)=O)c1sccc1C(F)(F)F` (centres unmarked) [Compound 610], the “Log P” value was 2.07^[a].

For the compound `CCOC(=O)C(C#N)=C(NC(C)C(N)=O)c1sccc1Br` (centres unmarked) [Compound 611], the “Log P” value is 1.9^[a].

For `CCOC(=O)C(C#N)=C(NC(C)C(=O)NC)c1sccc1Br` (centres unmarked) [Compound 612], the “Log P” value is 2.07^[a].

`CCOC(=O)C(C#N)=C(NC(C)CN(C)C)c1ccsc1Br` (centres unmarked) [Compound 613]: the “Log P” value is 1.44^[a].

Take `CCOCC(C)NC(=C(C#N)C(=O)OCC)c1cc(C)oc1C` (centres unmarked) [Compound 617]: the “Log P” value is 3.42^[a].

Turning to `CCOC(=O)C(C#N)=C(NC1(C(=O)OC(C)CC)CC1)c1cc(C)oc1C` (centres unmarked) [Compound 618], the “Log P” value was 3.94^[a].

On to `CCOC(=O)C(C#N)=C(NC(C)(C)CSC)c1cc(C)oc1C` [Compound 619], for which the “Log P” value is 3.58^[a].

As for `COC(=O)CC(C)NC(=C(C#N)C(=O)OC)c1cccnc1Cl` (centres unmarked) [Compound 620], the “Log P” value was 2.11^[a].

In the case of `CCC(C)OC(=O)C1(NC(=C(C#N)C(=O)OC)c2cccnc2Cl)CC1` (centres unmarked) [Compound 621], the “Log P” value is 2.23^[a].

Turning to `CCN(CC)CC(C)NC(=C(C#N)C(=O)OC)c1cccnc1Cl` (centres unmarked) [Compound 622], the “Log P” value was 0.86^[a].

Consider `CCOC(=O)C1(NC(=C(C#N)C(=O)OC)c2cccnc2Cl)CC1` [Compound 623], for which the “Log P” value was 1.66^[a].

As for `CCOCC(C)NC(=C(C#N)C(=O)OC)c1cccnc1Cl` (centres unmarked) [Compound 624], the “Log P” value is 2.42^[a].

With `CCOCC(CC)NC(=C(C#N)C(=O)OC)c1cccnc1Cl` (centres unmarked) [Compound 625], the “Log P” value was 2.76^[a].

As to `CCCC(COCC)NC(=C(C#N)C(=O)OC)c1cccnc1Cl` (centres unmarked) [Compound 626], the “Log P” value is 3.15^[a].

With `CCOCC(NC(=C(C#N)C(=O)OC)c1cccnc1Cl)C(C)C` (centres unmarked) [Compound 627], the “Log P” value was 3.11^[a].

In the case of `CCOC(=O)C(C#N)=C(NC(C)C(N)=O)c1ccsc1Br` (centres unmarked) [Compound 628], the “Log P” value is 1.9^[a].

As to `CCOC(=O)C(C#N)=C(NC(C)C(=O)NC)c1conc1C` (centres unmarked) [Compound 629], the “Log P” value was 1.57^[a].

With `COC(=O)C(C#N)=C(NC(C)CN(C)C)c1sc(C)nc1C(F)(F)F` (centres unmarked) [Compound 630], the “Log P” value was 1.17^[a].

With `COC(=O)/C(C#N)=C(\NCC(C)N)c1sc(C)nc1C(F)(F)F` (centres unmarked) [Compound 631], the “Log P” value was 0.94^[a].

Take `CCOC(=O)C(C#N)=C(NC(C)CN)c1cn(C)nc1C(F)(F)F` (centres unmarked) [Compound 632]: the “Log P” value was 1.11^[a].

In the case of `COC(=O)C(C#N)=C(NC(C)C(N)=O)c1sc(C)nc1C(F)(F)F` (centres unmarked) [Compound 634], the “Log P” value was 1.69^[a].

For the compound `CCOC(=O)C(C#N)=C(NC(C)C(N)=O)c1cn(C)nc1C(F)(F)F` (centres unmarked) [Compound 635], the “Log P” value is 1.78^[a].

Take `CCOC(=O)C(C#N)=C(NC(C)C(=O)NC)c1cn(C)nc1C(F)(F)F` (centres unmarked) [Compound 636]: the “Log P” value is 1.95^[a].

Take `CCOC(=O)C(C#N)=C(NC(C)C(=O)NC)c1ccsc1Br` (centres unmarked) [Compound 637]: the “Log P” value was 2.05^[a].

With `CNC(=O)C(C)NC(=C(C#N)C(=O)OC)c1sc(C)nc1C(F)(F)F` (centres unmarked) [Compound 638], the “Log P” value was 1.93^[a].

In the case of `CCOC(=O)C(C#N)=C(NC(C)C(=O)NC)c1sccc1C(F)(F)F` (centres unmarked) [Compound 639], the “Log P” value is 2.25^[a].

Turning to `CCOC(=O)C(C#N)=C(NC(C)CN(C)C)c1sc(C)nc1C(F)(F)F` (centres unmarked) [Compound 640], the “Log P” value was 1.35^[a].

With `CCOC(=O)C(C#N)=C(NC(C)C(N)=O)c1sc(C)nc1C(F)(F)F` (centres unmarked) [Compound 641], the “Log P” value was 1.96^[a].

As to `CCOC(=O)C(C#N)=C(NC(C)C(=O)NC)c1sc(C)nc1C(F)(F)F` (centres unmarked) [Compound 642], the “Log P” value was 2.07^[a].

For the compound `CCOC(=O)/C(C#N)=C(\NCC(C)N)c1sc(C)nc1C(F)(F)F` (centres unmarked) [Compound 643], the lipophilicity (Log P) is 1.11^[a].

With `CCOC(=O)C(C#N)=C(NC(C)C(N)=O)c1sccc1Cl` (centres unmarked) [Compound 644], the “Log P” value was 1.9^[a].

In the case of `CCOC(=O)C(C#N)=C(NC(C)C(=O)NC)c1sccc1Cl` (centres unmarked) [Compound 645], the “Log P” value is 2.08^[a].

As to `CCOC(=O)C(C#N)=C(NC(C)C(=O)NC)c1ccsc1I` (centres unmarked) [Compound 646], the “Log P” value is 2.07^[a].

On to `CCOC(=O)C(C#N)=C(NC(C)C(N)=O)c1ccsc1I` (centres unmarked) [Compound 647], for which the “Log P” value was 1.91^[a].

For the compound `CCOC(=O)C(C#N)=C(NC(C)C(=O)OC)c1sccc1Br` (centres unmarked) [Compound 649], the “Log P” value was 2.96^[a].

As for `CCOC(=O)C(C#N)=C(NC(C(=O)OC)C(C)C)c1sccc1Br` (centres unmarked) [Compound 650], the log partition coefficient (Log P) was 3.67^[a].

As for `CCOC(=O)C(C#N)=C(NC(C)C(N)=O)c1sccc1Br` (centres unmarked) [Compound 652], the “Log P” value is 1.94^[a].

Regarding `CCOC(=O)C(C#N)=C(NC(C)C(=O)OC)c1sccc1C(F)(F)F` (centres unmarked) [Compound 657], the “Log P” value is 3.11^[a].

As to `CCOC(=O)C(C#N)=C(NC(C(=O)OC)C(C)C)c1sccc1C(F)(F)F` (centres unmarked) [Compound 659], the “Log P” value is 3.62^[a].

Regarding `COC(=O)C(C#N)=C(NC(C)C(=O)OC)c1sc(C)nc1C(F)(F)F` (centres unmarked) [Compound 665], the “Log P” value is 2.62^[a].

Still in this data set, the particulars now being: pH 7.5.
As to `COC(=O)C(C#N)=C(NC(C)C(N)=O)c1cccnc1Cl` (centres unmarked) [Compound 563], the “Log P” value came out at 1.18.

In the case of `COC(=O)C(C#N)=C(NCC(N)=O)c1cccnc1Cl` [Compound 569], the “Log P” value was found to be 0.94.

As for `COC(=O)C(C#N)=C(NC(CO)C(N)=O)c1cccnc1Cl` (centres unmarked) [Compound 570], the “Log P” value turned out to be 0.79.

Regarding `COC(=O)C(C#N)=C(NC(C(N)=O)C(C)C)c1cccnc1Cl` (centres unmarked) [Compound 572], the “Log P” value turned out to be 1.58.

As for `COC(=O)C(C#N)=C(NC(C)CSC)c1cccnc1Cl` (centres unmarked) [Compound 575], the “Log P” value is recorded as 2.38.

As for `CCSCC(C)NC(=C(C#N)C(=O)OC)c1cccnc1Cl` (centres unmarked) [Compound 577], the “Log P” value is listed as 2.72.

Regarding `COC(=O)C(C#N)=C(NC(C(=O)OC)C(C)C)c1cccnc1Cl` (centres unmarked) [Compound 580], the “Log P” value worked out at 2.56.

For `COC(=O)C(NC(=C(C#N)C(=O)OCC(F)(F)F)c1cccnc1Cl)C(C)C` (centres unmarked) [Compound 581], the “Log P” value is listed as 3.14.

With `CCOC(=O)C(C#N)=C(NC(CC)C(=O)OC)c1cccnc1Cl` (centres unmarked) [Compound 582], the “Log P” value was 2.27.

`CSCC(C)NC(=C(C#N)C(=O)OCC(F)(F)F)c1cccnc1Cl` (centres unmarked) [Compound 585]: the “Log P” value is 2.98.

For the compound `CCOC(=O)C(C#N)=C(NC(C)CSCC)c1cccnc1Cl` (centres unmarked) [Compound 586], the “Log P” value amounted to 3.06.

On to `CCOC(=O)C(C#N)=C(NC(C)CSC)c1cccnc1Cl` (centres unmarked) [Compound 593], for which the “Log P” value is 2.71.

For the compound `CCOC(=O)C(C#N)=C(NC(C)CSC)c1cccnc1C` (centres unmarked) [Compound 648], the “Log P” value amounted to 2.44.
